US20180099931A1 (AbbVie S.à.r.l., priority 2016, published 2018)
pEC50: −log10 of the molar value. Read-outs that look alike come from different tables or passages of the source.

Biological target: T1, F508delCFTR (Homo sapiens, UniProt P13569, DEL508-508)
T1 construct: expressed in transfected cells; host or cells: CFBE41o- human lung-derived epithelial cells (CFBE4lo-F508delCFTR-HRP), doxycycline-inducible
Assay: Cell Surface Expression-Horse Radish Peroxidase (CSE-HRP) Assay;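 on Maximum % activity (with co-corrector): co-corrector and positive control are both the same reference corrector at 2 µM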;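 on Maximum % activity (without co-corrector): percent of the 2 µM on-plate positive control corrector response above DMSO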
Format: cell-based
Details: for Maximum % activity (with co-corrector): with co-corrector (2 μM); for Maximum % activity (with co-corrector) / Emax: maximum at any tested concentration, normalized to on-plate positive control; for Emax: without co-corrector, read-out: Maximum % activity (without co-corrector)

[1] = test compound without co-corrector, read-out: EC50 (without co-corrector)
[2] = with co-corrector (2 μM of 3-[(2R,4R)-4-({[1-(2,2-difluoro-1,3-benzodioxol-5-yl)cyclopropyl]carbonyl}amino)-7-methoxy-3,4-dihydro-2H-chromen-2-yl]benzoic acid), read-out: EC50 (with co-corrector)

T1 sequence (P13569 with tags, fused parts or gaps DEL508-508): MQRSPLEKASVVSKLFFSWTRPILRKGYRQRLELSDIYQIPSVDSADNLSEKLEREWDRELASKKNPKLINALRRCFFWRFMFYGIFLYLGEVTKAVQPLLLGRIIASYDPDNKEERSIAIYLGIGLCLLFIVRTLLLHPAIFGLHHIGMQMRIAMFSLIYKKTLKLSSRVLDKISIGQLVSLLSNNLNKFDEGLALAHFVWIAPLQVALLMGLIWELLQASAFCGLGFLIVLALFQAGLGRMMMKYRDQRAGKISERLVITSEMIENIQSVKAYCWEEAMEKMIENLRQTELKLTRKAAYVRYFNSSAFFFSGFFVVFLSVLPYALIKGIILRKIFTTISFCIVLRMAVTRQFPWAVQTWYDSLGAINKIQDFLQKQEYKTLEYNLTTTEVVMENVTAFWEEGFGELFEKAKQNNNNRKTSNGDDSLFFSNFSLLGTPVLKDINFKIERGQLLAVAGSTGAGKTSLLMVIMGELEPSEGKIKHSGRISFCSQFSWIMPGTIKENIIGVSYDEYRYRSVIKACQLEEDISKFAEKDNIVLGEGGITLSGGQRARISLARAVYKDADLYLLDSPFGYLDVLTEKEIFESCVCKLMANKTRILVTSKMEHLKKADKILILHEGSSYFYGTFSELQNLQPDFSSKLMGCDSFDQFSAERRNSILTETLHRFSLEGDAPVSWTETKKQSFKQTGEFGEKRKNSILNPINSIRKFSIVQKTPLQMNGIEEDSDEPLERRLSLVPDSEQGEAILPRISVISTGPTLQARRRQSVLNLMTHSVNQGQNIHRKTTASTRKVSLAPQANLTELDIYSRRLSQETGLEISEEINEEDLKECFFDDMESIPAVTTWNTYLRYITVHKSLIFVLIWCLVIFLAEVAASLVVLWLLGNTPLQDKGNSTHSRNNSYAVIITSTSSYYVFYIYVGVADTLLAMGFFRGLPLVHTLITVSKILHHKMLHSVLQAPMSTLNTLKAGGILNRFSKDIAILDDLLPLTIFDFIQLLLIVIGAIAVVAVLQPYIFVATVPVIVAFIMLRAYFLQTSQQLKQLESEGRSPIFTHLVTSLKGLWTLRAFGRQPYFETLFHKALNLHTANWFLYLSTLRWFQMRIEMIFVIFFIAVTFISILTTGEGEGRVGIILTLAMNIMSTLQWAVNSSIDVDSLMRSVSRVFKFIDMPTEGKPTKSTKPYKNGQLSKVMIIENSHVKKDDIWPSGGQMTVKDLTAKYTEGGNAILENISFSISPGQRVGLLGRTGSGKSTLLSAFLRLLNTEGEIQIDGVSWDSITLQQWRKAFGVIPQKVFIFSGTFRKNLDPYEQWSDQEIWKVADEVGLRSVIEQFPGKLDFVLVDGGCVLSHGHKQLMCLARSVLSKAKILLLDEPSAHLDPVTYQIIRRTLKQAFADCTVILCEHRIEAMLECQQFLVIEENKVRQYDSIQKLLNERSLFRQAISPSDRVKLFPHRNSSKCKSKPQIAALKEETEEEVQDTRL

SMILES | pEC50 [1] | pEC50 [2] | Maximum % activity (with co-corrector) | Emax
CCc1ccccc1[C@H]1[C@@H](NCc2cc(C3CCC3)cnc2OC)[C@H](C(C)(C)C)[C@@H](C(=O)O)N1C(=O)[C@@H]1CCCO1 [Example 111, (2S,3S,4S,5S)-3-tert-butyl-4-{[(5-cyclobutyl-2-methoxypyridin-3-yl)methyl]amino}-5-(2-ethylphenyl)-1-[(2S)-oxolane-2-carbonyl]pyrrolidine-2-carboxylic acid] | 5.00 to 6.00 | 5.00 to 6.00 | +++ (≥350) | > 200%
COc1ccc(C2(C)CCC2)cc1CN[C@H]1[C@H](C(C)(C)C)[C@@H](C(=O)O)N(C(=O)[C@@H]2CCCO2)[C@H]1c1ccccc1C1CC1 [Example 112, (2S,3S,4S,5S)-3-tert-butyl-5-(2-cyclopropylphenyl)-4-({[2-methoxy-5-(1-methylcyclobutyl)phenyl]methyl}amino)-1-[(2S)-oxolane-2-carbonyl]pyrrolidine-2-carboxylic acid] | 5.00 to 6.00 | > 6.00 | +++ (≥350) | > 200%
COc1ccc(C(C)(C)C)cc1CN[C@H]1[C@H](C(C)(C)C)[C@@H](C(=O)O)N(C(=O)[C@@H]2CCCCO2)[C@H]1c1ccccc1Br [Example 113, (2S,3S,4S,5S)-5-(2-bromophenyl)-3-tert-butyl-4-{[(5-tert-butyl-2-methoxyphenyl)methyl]amino}-1-[(2S)-oxane-2-carbonyl]pyrrolidine-2-carboxylic acid] | 5.00 to 6.00 | > 6.00 | +++ (≥350) | > 200%
COc1ncc(C(F)(F)F)cc1N[C@H]1[C@H](C(C)(C)C)[C@@H](C(=O)O)N(C(=O)C2CCCCC2)[C@H]1c1ccccc1 [Example 114, (2S,3S,4S,5S)-3-tert-butyl-1-(cyclohexanecarbonyl)-4-{[2-methoxy-5-(trifluoromethyl)pyridin-3-yl]amino}-5-phenylpyrrolidine-2-carboxylic acid] | > 6.00 | > 6.00 | +++ (≥350) | < 100%
COc1ncc(C2CC2)cc1CN[C@H]1[C@H](C(C)(C)C)[C@@H](C(=O)O)N(C(=O)[C@@H]2CCCCO2)[C@H]1c1ccccc1C(C)C [Example 115, (2S,3S,4S,5S)-3-tert-butyl-4-{[(5-cyclopropyl-2-methoxypyridin-3-yl)methyl]amino}-1-[(2S)-oxane-2-carbonyl]-5-[2-(propan-2-yl)phenyl]pyrrolidine-2-carboxylic acid] | 5.00 to 6.00 | > 6.00 | +++ (≥350) | > 200%
COc1ncc(C(F)(F)F)cc1CN[C@H]1[C@H](C(C)(C)C)[C@@H](C(=O)O)N(C(=O)[C@@H]2CCCCO2)[C@H]1c1ccccc1C1CC1 [Example 116, (2S,3S,4S,5S)-3-tert-butyl-5-(2-cyclopropylphenyl)-4-({[2-methoxy-5-(trifluoromethyl)pyridin-3-yl]methyl}amino)-1-[(2S)-oxane-2-carbonyl]pyrrolidine-2-carboxylic acid] | 5.00 to 6.00 | > 6.00 | +++ (≥350) | > 200%
COc1ncc(C2CCC2)cc1CN[C@H]1[C@H](C(C)(C)C)[C@@H](C(=O)O)N(C(=O)C2CCCCC2)[C@H]1c1ccccc1C(C)C [Example 117, (2S,3S,4S,5S)-3-tert-butyl-4-{[(5-cyclobutyl-2-methoxypyridin-3-yl)methyl]amino}-1-(cyclohexanecarbonyl)-5-[2-(propan-2-yl)phenyl]pyrrolidine-2-carboxylic acid] | > 6.00 | > 6.00 | +++ (≥350) | > 200%
COc1ncc(C(F)(F)F)cc1CN[C@H]1[C@H](C(C)(C)C)[C@@H](C(=O)O)N(C(=O)C2CCCCC2)[C@H]1c1cccc2c1OC(C)(C)C2 [Example 118, (2S,3S,4S,5S)-3-tert-butyl-1-(cyclohexanecarbonyl)-5-(2,2-dimethyl-2,3-dihydro-1-benzofuran-7-yl)-4-({[2-methoxy-5-(trifluoromethyl)pyridin-3-yl]methyl}amino)pyrrolidine-2-carboxylic acid] | > 6.00 | > 6.00 | +++ (≥350) | 100 to 200%
COc1ncc(C2CCC2)cc1CN(C)[C@H]1[C@H](C(C)(C)C)[C@@H](C(=O)O)N(C(=O)[C@@H]2CCCCO2)[C@H]1c1ccccc1C(C)C [Example 119, (2S,3S,4S,5S)-3-tert-butyl-4-{[(5-cyclobutyl-2-methoxypyridin-3-yl)methyl](methyl)amino}-1-[(2S)-oxane-2-carbonyl]-5-[2-(propan-2-yl)phenyl]pyrrolidine-2-carboxylic acid] | > 6.00 | > 6.00 | +++ (≥350) | > 200%
COc1ccc(C(F)(F)F)cc1CN[C@H]1[C@H](C(C)(C)C)[C@@H](C(=O)O)N(C(=O)[C@H](OC)c2ccccc2)[C@H]1c1ccccc1 [Example I-20] | 5.00 to 6.00 | > 6.00 | +++ (≥350) | > 200%
COc1ccc(C(F)(F)F)cc1CN[C@H]1[C@H](C(C)(C)C)[C@@H](C(=O)O)N(C(=O)[C@@H](OC)c2ccccc2)[C@H]1c1ccccc1 [Example I-34] | 5.00 to 6.00 | 5.00 to 6.00 | +++ (≥350) | > 200%
COc1cc(C(F)(F)F)ccc1CN[C@H]1[C@H](C(C)(C)C)[C@@H](C(=O)O)N(C(=O)C2CCCCC2)[C@H]1c1cccnc1OC [Example I-39] | 5.00 to 6.00 | > 6.00 | +++ (≥350) | 100 to 200%
COc1cc2ccccc2cc1CN[C@H]1[C@H](C(C)(C)C)[C@@H](C(=O)O)N(C(=O)C2CCCCC2)[C@H]1c1ccccc1 [Example I-42] | 5.00 to 6.00 | > 6.00 | +++ (≥350) | > 200%
COc1cc(C(F)(F)F)ccc1CN[C@H]1[C@H](C(C)(C)C)[C@@H](C(=O)O)N(C(=O)C2CCCCC2)[C@H]1c1ccccc1OC(F)F [Example I-43] | 5.00 to 6.00 | 5.00 to 6.00 | +++ (≥350) | < 100%
COc1cc(C(F)(F)F)ccc1CN[C@H]1[C@H](C(C)(C)C)[C@@H](C(=O)O)N(C(=O)C2CCCCC2)[C@H]1c1cccnc1N(C)C [Example I-44] | 5.00 to 6.00 | 5.00 to 6.00 | +++ (≥350) | 100 to 200%
COc1cc(C(F)(F)F)ccc1CN[C@@H]1[C@@H](C(C)(C)C)[C@H](C(=O)O)N(C(=O)[C@H](C)c2ccccc2)[C@@H]1c1ccccc1 [Example I-45] | < 5.00 | < 5.00 | + (<150) | < 100%
CC(C)(C)[C@H]1[C@H](NCc2cc3ccccc3o2)[C@H](c2ccccc2)N(C(=O)C2CCCCC2)[C@@H]1C(=O)O [Example I-46] | 5.00 to 6.00 | 5.00 to 6.00 | ++ (≥150 and <350) | < 100%
CC(C)(C)[C@H]1[C@H](NCc2ccc3c(c2)OCCO3)[C@H](c2ccccc2)N(C(=O)C2CCCCC2)[C@@H]1C(=O)O [Example I-47] | < 5.00 | 5.00 to 6.00 | ++ (≥150 and <350) | < 100%
COc1ccc(-c2ccccc2)cc1CN[C@H]1[C@H](C(C)(C)C)[C@@H](C(=O)O)N(C(=O)C2CCCCC2)[C@H]1c1ccccc1 [Example I-48] | > 6.00 | > 6.00 | +++ (≥350) | > 200%
COc1cc2c(cc1CN[C@H]1[C@H](C(C)(C)C)[C@@H](C(=O)O)N(C(=O)C3CCCCC3)[C@H]1c1ccccc1)CCC2 [Example I-49] | 5.00 to 6.00 | > 6.00 | +++ (≥350) | > 200%
CC(C)(C)[C@H]1[C@H](NCc2ccc(F)cc2OCC2CC2)[C@H](c2ccccc2)N(C(=O)C2CCCCC2)[C@@H]1C(=O)O [Example I-50] | 5.00 to 6.00 | 5.00 to 6.00 | ++ (≥150 and <350) | < 100%
CC(C)(C)[C@H]1[C@H](NCc2cc(Cl)ccc2O)[C@H](c2ccccc2)N(C(=O)C2CCCCC2)[C@@H]1C(=O)O [Example I-51] | < 5.00 | 5.00 to 6.00 | ++ (≥150 and <350) | < 100%
COc1ccc(C(C)(C)C)cc1CN[C@H]1[C@H](C(C)(C)C)[C@@H](C(=O)O)N(C(=O)C2CCCCC2)[C@H]1c1cccnc1N(C)C [Example I-52] | > 6.00 | > 6.00 | +++ (≥350) | > 200%
COc1ccc(C(F)(F)F)cc1CN[C@H]1[C@H](C(C)(C)C)[C@@H](C(=O)O)N(C(=O)C2CCCCC2)[C@H]1c1cccnc1N(C)C [Example I-53] | 5.00 to 6.00 | 5.00 to 6.00 | +++ (≥350) | 100 to 200%
CC(C)c1cc(C(F)(F)F)cc(N[C@H]2[C@H](C(C)(C)C)[C@@H](C(=O)O)N(C(=O)C3CCCCC3)[C@H]2c2ccccc2)n1 [Example I-54] | 5.00 to 6.00 | 5.00 to 6.00 | ++ (≥150 and <350) | < 100%
COc1c(C#N)c(N[C@H]2[C@H](C(C)(C)C)[C@@H](C(=O)O)N(C(=O)C3CCCCC3)[C@H]2c2ccccc2)nc2ccccc12 [Example I-55] | 5.00 to 6.00 | 5.00 to 6.00 | +++ (≥350) | < 100%
CC(C)(C)[C@H]1[C@H](Nc2cccc(C(F)(F)F)c2)[C@H](c2ccccc2)N(C(=O)C2CCCCC2)[C@@H]1C(=O)O [Example I-56] | > 6.00 | > 6.00 | +++ (≥350) | < 100%
